Series [1] addresses T1, Indoleamine 2,3-dioxygenase 2 (Mus musculus) (UniProt Q8R0V5).
T1 sequence (whole entry): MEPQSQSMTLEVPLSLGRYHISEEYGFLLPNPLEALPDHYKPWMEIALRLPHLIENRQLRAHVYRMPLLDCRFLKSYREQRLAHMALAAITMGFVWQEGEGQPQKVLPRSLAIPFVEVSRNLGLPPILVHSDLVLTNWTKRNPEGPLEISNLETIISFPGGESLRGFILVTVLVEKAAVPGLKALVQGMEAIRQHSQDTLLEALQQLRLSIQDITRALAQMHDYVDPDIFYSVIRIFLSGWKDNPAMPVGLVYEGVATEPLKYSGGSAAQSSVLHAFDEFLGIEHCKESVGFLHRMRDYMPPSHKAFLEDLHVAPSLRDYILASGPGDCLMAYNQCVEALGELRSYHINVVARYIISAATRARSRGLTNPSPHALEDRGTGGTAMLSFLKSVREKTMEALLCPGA
Conditions: HEK-293T, at 20 µM.
Description: (§1) Inhibition of mouse Ido2 transfected in HEK293T cells using L-tryptophan as substrate assessed as kynurenine formation at 20 uM after 45 mins by spectrophotometric analysis relative to control

The subject of series [2] is HEK-293T. Nature of the series: Cytotoxicity against HEK293T cells assessed as decrease in cell viability at 25 uM after 24 hrs by trypan blue exclusion assay. The class given is cell-based. Conditions: human.
For series [3], the target named is Indoleamine 2,3-dioxygenase 1 (Mus musculus, UniProt P28776). Description: Inhibition of mouse Ido1 transfected in HEK293T cells using L-tryptophan as substrate assessed as kynurenine formation after 45 mins by spectrophotometric analysis. The class given is cell-based, HEK-293T.
Series [4] deals with Tryptophan 2,3-dioxygenase (Mus musculus) (UniProt P48776). Nature of the series: Inhibition of mouse Tdo2 transfected in HEK293T cells using L-tryptophan as substrate assessed as kynurenine formation at 100 uM after 45 mins by spectrophotometric analysis relative to control. The class given is cell-based. Conditions: HEK-293T.
Series [5] addresses T2, Indoleamine 2,3-dioxygenase 2 (Mus musculus, UniProt Q8R0V5).
T2 sequence (Q8R0V5 whole entry): T1 sequence (whole entry)
Description: Inhibition of mouse Ido2 transfected in HEK293T cells using L-tryptophan as substrate assessed as kynurenine formation after 45 mins by spectrophotometric analysis. The class given is cell-based, HEK-293T.

For series [6], the species on record is Mus musculus. Nature of the series: Selectivity ratio of IC50 for mouse Ido1 to IC50 for mouse Ido2.
Series [7] has as its target Indoleamine 2,3-dioxygenase 1 (Mus musculus) (UniProt P28776). Nature of the series: Inhibition of mouse Ido1 transfected in HEK293T cells using L-tryptophan as substrate assessed as residual activity at 100 uM after 45 mins by spectrophotometric analysis relative to control. In kind it is cell-based. Conditions: HEK-293T.
Series [8] deals with T1, Indoleamine 2,3-dioxygenase 2 (Mus musculus). Nature of the series: Inhibition of mouse Ido2 transfected in HEK293T cells using L-tryptophan as substrate assessed as assessed as residual activity at 100 uM after 45 mins by spectrophotometric analysis relative to control. In kind it is cell-based. Conditions: HEK-293T.
Series [9] deals with Indoleamine 2,3-dioxygenase 2 (Mus musculus) (UniProt Q8R0V5). Conditions: HEK-293T, at 20 µM. The source holds these as a separate data set.
Description: as §1

Experimental findings from ChEMBL document CHEMBL2203204, “Identification of selective inhibitors of indoleamine 2,3-dioxygenase 2” (Bioorg Med Chem Lett, 2012) are described below.

Activity calls are given as the source filed them. No cut-off for these calls is given here.

Sequence of Indoleamine 2,3-dioxygenase 1 (P28776 whole entry): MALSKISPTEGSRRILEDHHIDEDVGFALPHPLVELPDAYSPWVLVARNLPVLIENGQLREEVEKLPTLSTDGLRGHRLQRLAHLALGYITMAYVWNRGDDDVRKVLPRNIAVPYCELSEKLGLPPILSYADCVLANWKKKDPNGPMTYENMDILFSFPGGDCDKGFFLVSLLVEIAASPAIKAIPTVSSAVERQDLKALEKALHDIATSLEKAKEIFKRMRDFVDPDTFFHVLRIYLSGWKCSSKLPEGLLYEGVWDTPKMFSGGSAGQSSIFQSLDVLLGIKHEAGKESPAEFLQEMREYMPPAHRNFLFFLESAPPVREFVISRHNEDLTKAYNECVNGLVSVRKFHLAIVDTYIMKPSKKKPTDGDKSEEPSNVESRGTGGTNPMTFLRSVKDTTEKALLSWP
Sequence of Tryptophan 2,3-dioxygenase (Mus musculus) (P48776 whole entry): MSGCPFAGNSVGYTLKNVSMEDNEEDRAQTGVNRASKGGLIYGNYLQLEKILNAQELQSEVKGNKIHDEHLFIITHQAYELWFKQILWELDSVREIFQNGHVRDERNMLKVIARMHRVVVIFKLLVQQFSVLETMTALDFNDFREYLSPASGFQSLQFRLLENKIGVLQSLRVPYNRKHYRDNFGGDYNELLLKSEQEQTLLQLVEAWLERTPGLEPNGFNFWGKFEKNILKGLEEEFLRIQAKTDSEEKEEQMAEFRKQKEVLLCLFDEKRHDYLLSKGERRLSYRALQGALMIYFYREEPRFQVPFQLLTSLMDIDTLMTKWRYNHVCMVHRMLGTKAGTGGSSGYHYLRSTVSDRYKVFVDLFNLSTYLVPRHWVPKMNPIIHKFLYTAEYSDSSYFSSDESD
Sequence of Indoleamine 2,3-dioxygenase 1 (Mus musculus) (P28776 whole entry, looked up): as the sequence (P28776 whole entry) above

For `CCOC(=O)C1=C(C)NC(C)=C(C(=O)OCC)C1c1ccccc1/C=C/C(=O)OC(C)(C)C`, the inhibition (in general, the drop in the measured response relative to a control, in per cent) in [1] is greater than 55%.

As for `Cc1c(OCC(F)(F)F)ccnc1C[S+]([O-])c1nc2ccccc2[nH]1` (configuration not stated) [LANSOPRAZOLE], the Activity result in series [2] is listed as “Non-toxic”. For the same molecule, the IC50 – broadly, the concentration needed to halve the response being measured – turned out to be 94 µM in series [3] and 8.2 µM in series [5]. The inhibition in [4] was less than 20%.

In the case of `Clc1ccc(COC(Cn2ccnc2)c2ccc(Cl)cc2Cl)c(Cl)c1` (configuration not stated) [MICONAZOLE], the inhibition in series [1] is greater than 55%; in series [4], greater than 95%. Besides, in [2], the Activity entry is given as “Non-toxic”. In addition, the IC50 stood at 17.8 µM in series [3] and 6.7 µM in series [5].

In the case of `C[C@H](CS)C(=O)N1CCC[C@H]1C(=O)O`, the inhibition in series [1] is greater than 55%. Take `COc1ccnc(C[S+]([O-])c2nc3cc(OC(F)F)ccc3[nH]2)c1OC` (configuration not stated): the inhibition entry in series [4] is “inactive”. On to `Cc1c(C)c2c(c(C)c1O)CCC(C)(COc1ccc(CC3SC(=O)NC3=O)cc1)O2` (configuration not stated) [TROGLITAZONE], for which the figures for the inhibition in [1] and in series [4] were greater than 55% and less than 20%, respectively. In addition, the results for the IC50 in series [3] and in series [5] were 61 µM and 4.5 µM, respectively. Moreover, the Ratio IC50 in [6] is 14. For `OCCN(CCO)c1nc(N2CCCCC2)c2nc(N(CCO)CCO)nc(N3CCCCC3)c2n1`, the inhibition in series [1] is greater than 55%. Same read-out and setting: for `COCCOC(=O)C1=C(C)NC(C)=C(C(=O)OC(C)C)C1c1cccc([N+](=O)[O-])c1` (configuration not stated) the value was greater than 55%; for `CCC[S+]([O-])c1ccc2[nH]c(NC(=O)OC)nc2c1` (configuration not stated), greater than 55%.

`CC[C@@H](C(N)=O)N1CCCC1=O` displayed an inhibition in series [1] greater than 55%. For `COC(=O)C1=C(C)NC(C)=C(C(=O)OC)C1c1ccccc1[N+](=O)[O-]` [NIFEDIPINE], the inhibition in series [1] was greater than 55%; in series [4] it was less than 20%. The IC50 came out at 46 µM in series [3] and 1.5 µM in series [5]. Further, the Ratio IC50 in series [6] was found to be 30. As to `Clc1ccc(CO/N=C(\Cn2ccnc2)c2ccc(Cl)cc2Cl)c(Cl)c1`, the inhibition in series [1] is greater than 55%. In turn, `CC1=C(/C=C/C(C)=C/C=C/C(C)=C/C(=O)O)C(C)(C)CCC1` [TRETINOIN] returned an inhibition in [1] greater than 55%. Besides, the IC50 was determined as 301 µM in series [3] and 28.7 µM in series [5]. Also, the inhibition result in series [4] is “inactive”. The results for the Activity in series [7] and in series [8] were 100% and less than 5%, respectively. Moreover, the Ratio IC50 in series [6] came to 10. As to `Clc1ccc(CSC(Cn2ccnc2)c2ccc(Cl)cc2Cl)cc1` (configuration not stated) [SULCONAZOLE], the IC50 in series [3] worked out at 29.3 µM; in [5] it was 10.1 µM. In addition, in series [4], the inhibition is greater than 95%. Molecule `COC(=O)C1=C(C)NC(C)=C(C(=O)OCC(C)C)C1c1ccccc1[N+](=O)[O-]` (configuration not stated) gave an inhibition in series [1] greater than 55%. The molecule `CCCc1nc2c(C)cc(-c3nc4ccccc4n3C)cc2n1Cc1ccc(-c2ccccc2C(=O)O)cc1` gave an inhibition in [1] greater than 55%. The molecule `COc1ccccc1OCCNCC(O)COc1cccc2[nH]c3ccccc3c12` (configuration not stated) came in with an inhibition in series [1] greater than 55%. As for `CCCCCN(CCCCC)C(=O)C(CCC(=O)O)NC(=O)c1ccc(Cl)c(Cl)c1` (configuration not stated), the inhibition in series [1] is greater than 55%.

In turn, `CCOC(=O)C1=C(C)NC(C)=C(C(=O)OC)C1c1cccc(Cl)c1Cl` (configuration not stated) showed an inhibition in series [1] greater than 55%. `COc1ccnc(C[S+]([O-])c2nc3ccc(OC(F)F)cc3[nH]2)c1OC` (configuration not stated) [PANTOPRAZOLE]: the IC50 is 109 µM in series [3] and 12.6 µM in series [5]. In series [1], `CCCc1nn(C)c2c(=O)[nH]c(-c3cc(S(=O)(=O)N4CCN(C)CC4)ccc3OCC)nc12` [SILDENAFIL] returned an inhibition greater than 55%. Moreover, the 50% inhibitory concentration (IC50) was greater than 100 µM in [3] and 4.5 µM in [5]. The inhibition result in series [4] is “inactive”. `COc1ccc2[nH]c([S+]([O-])Cc3ncc(C)c(OC)c3C)nc2n1` (configuration not stated) [TENATOPRAZOLE] returned an inhibition in series [1] greater than 55%. Further, the IC50 in [3] is greater than 100 µM; in [5], 1.8 µM. Besides, the inhibition result in series [4] is “inactive”. Regarding `COCCOC(=O)C1=C(C)NC(C)=C(C(=O)OC/C=C/c2ccccc2)C1c1cccc([N+](=O)[O-])c1` (configuration not stated), the inhibition in [1] was greater than 55%. Same read-out and setting: for `CC(c1cc2ccccc2s1)N(O)C(N)=O` (configuration not stated) the value was greater than 55%; for `COC(=O)C1=C(C)NC(C)=C(C(=O)OCCN(C)Cc2ccccc2)C1c1cccc([N+](=O)[O-])c1` (configuration not stated), greater than 55%; for `O=C(O)Cc1sc(-c2ccccc2)nc1-c1ccc(Cl)cc1`, greater than 55%. The same measure, in the same setting: the value for `CCN(CC)C(=S)SSC(=S)N(CC)CC` was greater than 55%; that for `COc1cc2c(cc1OC)-c1c/c(=N\c3c(C)cc(C)cc3C)n(C)c(=O)n1CC2` was greater than 55%; that for `O=C1Nc2ccc(Cl)cc2[C@@](C#CC2CC2)(C(F)(F)F)O1` was greater than 55%. In the case of `CCOC(=O)C1=C(C)NC(C)=C(C(=O)OC)C1c1cccc([N+](=O)[O-])c1` (configuration not stated), the inhibition in series [1] was greater than 55%. For `CC1=C(C)C(=O)C(CCCCC#CCCCC#CCO)=C(C)C1=O`, the inhibition in [1] is greater than 55%. For the molecule `Clc1ccccc1C(c1ccccc1)(c1ccccc1)n1ccnc1` [CLOTRIMAZOLE], the IC50 amounted to 51.6 µM in series [3] and 5.9 µM in [5]. In series [4], the inhibition is greater than 95%.

In series [1], `CC(C)C[C@H]1C(=O)N2CCC[C@H]2[C@]2(O)O[C@](NC(=O)[C@@H]3C=C4c5cccc6[nH]c(Br)c(c56)C[C@H]4N(C)C3)(C(C)C)C(=O)N12` yielded an inhibition greater than 55%. For `CCCSc1ccc2[nH]c(NC(=O)OC)nc2c1`, the inhibition in [1] is greater than 55%. With `CC1=C(/C=C/C(C)=C/C=C/C(C)=C/C(=O)Nc2ccc(O)cc2)C(C)(C)CCC1` [FENRETINIDE], the values for the inhibition in [1] and in [4] were greater than 55% and 32%, respectively. Moreover, the Activity entry in series [2] is “Non-toxic”. Also, the values for the IC50 in series [3] and in series [5] were 59.9 µM and 18.7 µM, respectively. `C[C@@H]1CC[C@H]2[C@@H](C)C(=O)O[C@@H]3O[C@@]4(C)CC[C@@H]1[C@]32OO4`: in series [1], the inhibition is greater than 55%. As to `Clc1ccc(COC(Cn2ccnc2)c2ccc(Cl)cc2Cl)cc1` (configuration not stated) [ECONAZOLE], the IC50 was found to be 11.2 µM in series [3] and 7.6 µM in series [5]. In addition, the inhibition in [4] is greater than 95%.

As to `Clc1ccc(C(Cn2ccnc2)OCc2ccsc2Cl)c(Cl)c1` (configuration not stated), the inhibition in series [1] was greater than 55%. In turn, AURANOFIN displayed an inhibition in series [9] greater than 55%.

Molecule `NC[C@H]1CC[C@H](C(=O)O)CC1` showed an inhibition in [1] greater than 55%. With `COC(=O)Nc1nc2cc([S+]([O-])c3ccccc3)ccc2[nH]1` (configuration not stated), in series [1], the inhibition was greater than 55%. Molecule `CCN(CC)CCCC(C)Nc1c2ccc(Cl)cc2nc2ccc(OC)cc12` (configuration not stated) returned an inhibition in [1] greater than 55%. Regarding `CC(C)OC(=O)C(C)(C)Oc1ccc(C(=O)c2ccc(Cl)cc2)cc1`, in series [1], the inhibition is greater than 55%. With `Clc1ccc(C(Cn2ccnc2)OCc2csc3c(Cl)cccc23)c(Cl)c1` (configuration not stated), the inhibition in series [1] is greater than 55%. On the same count and under the same terms, the value for `CN1C[C@H](C(=O)N[C@]2(C)O[C@@]3(O)[C@@H]4CCCN4C(=O)[C@H](Cc4ccccc4)N3C2=O)C=C2c3cccc4[nH]cc(c34)C[C@H]21` was greater than 55%. As for `COc1cc2nc(N(C)CCCNC(=O)C3CCCO3)nc(N)c2cc1OC` (configuration not stated), the inhibition in series [1] is greater than 55%. The same measure, in the same setting: the value for `CC#CCC(C)[C@H](O)/C=C/[C@@H]1[C@H]2C/C(=C/CCCC(=O)O)C[C@H]2C[C@H]1O` (some centres not stated) was greater than 55%.

For `COC(=O)Nc1nc2cc(C(=O)c3ccccc3)ccc2[nH]1`, the inhibition in [1] was greater than 55%. Regarding `c1ccc(-c2ccc(C(c3ccccc3)n3ccnc3)cc2)cc1` (configuration not stated), the inhibition in [1] was greater than 55%.
